Laboratory results published in ChEMBL document CHEMBL1201862, “PubChem BioAssay data set” (2004).
Activity calls are given as the source filed them.

How the values were obtained:
Cytochrome P450 3A4 = Cytochrome P450 3A4 (Homo sapiens, UniProt P08684);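 also: CYP3A4 tested as one member of a cytochrome P450 panel screen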
Cytochrome P450 1A2 = target: T1, Cytochrome P450 1A2 (Homo sapiens, UniProt P05177);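 also: PubChem cytochrome P450 panel assay, CYP1A2 panel member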
T1 sequence (P05177 whole entry): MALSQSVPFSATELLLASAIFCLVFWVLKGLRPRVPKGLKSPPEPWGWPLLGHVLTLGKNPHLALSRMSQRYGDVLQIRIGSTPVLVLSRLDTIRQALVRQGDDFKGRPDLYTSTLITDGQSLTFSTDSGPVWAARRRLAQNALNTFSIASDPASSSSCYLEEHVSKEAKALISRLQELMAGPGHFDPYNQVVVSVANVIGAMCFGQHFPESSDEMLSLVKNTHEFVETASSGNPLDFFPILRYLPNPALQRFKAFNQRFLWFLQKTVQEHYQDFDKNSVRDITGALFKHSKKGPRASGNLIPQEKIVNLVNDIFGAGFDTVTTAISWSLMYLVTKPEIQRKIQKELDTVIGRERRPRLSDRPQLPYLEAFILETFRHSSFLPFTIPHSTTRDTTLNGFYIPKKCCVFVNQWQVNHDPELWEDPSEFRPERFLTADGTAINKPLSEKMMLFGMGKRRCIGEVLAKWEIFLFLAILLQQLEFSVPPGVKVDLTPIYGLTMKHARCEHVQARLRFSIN

Cytochrome P450 2C9 = Cytochrome P450 2C9 (Homo sapiens, UniProt P11712)
[1] = target: T2, Zinc finger protein mex-5 (Caenorhabditis elegans, UniProt Q9XUB2); assay: MEX-5/TCR-2 RNA interaction inhibitors, dose response, biochemical, C. elegans, fluorescence polarization (AID 1960)
T2 sequence (Q9XUB2 whole entry): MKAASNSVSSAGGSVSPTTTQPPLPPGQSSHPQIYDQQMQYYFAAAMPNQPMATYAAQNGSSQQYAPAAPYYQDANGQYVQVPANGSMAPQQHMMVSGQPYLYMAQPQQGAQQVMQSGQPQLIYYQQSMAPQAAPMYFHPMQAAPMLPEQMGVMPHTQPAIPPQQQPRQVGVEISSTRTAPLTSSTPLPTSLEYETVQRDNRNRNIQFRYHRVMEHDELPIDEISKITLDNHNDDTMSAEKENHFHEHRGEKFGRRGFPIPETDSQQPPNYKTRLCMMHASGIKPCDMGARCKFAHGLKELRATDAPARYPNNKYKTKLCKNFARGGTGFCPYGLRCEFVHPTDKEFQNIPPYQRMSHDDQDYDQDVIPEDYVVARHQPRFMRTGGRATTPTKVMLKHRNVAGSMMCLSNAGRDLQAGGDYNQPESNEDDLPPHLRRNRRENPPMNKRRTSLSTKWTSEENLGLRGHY

[2] = target: T3, RNA-binding protein pos-1 (Caenorhabditis elegans, UniProt G5EF15); assay: inhibitors of POS-1/mex-3 RNA binding, dose response, biochemical, fluorescence polarization (AID 1964);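 also: purified POS-1 fused to maltose binding protein made in E. coli; potency of compounds blocking POS-1 binding to fluorescent RNA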
T3 sequence (G5EF15 whole entry): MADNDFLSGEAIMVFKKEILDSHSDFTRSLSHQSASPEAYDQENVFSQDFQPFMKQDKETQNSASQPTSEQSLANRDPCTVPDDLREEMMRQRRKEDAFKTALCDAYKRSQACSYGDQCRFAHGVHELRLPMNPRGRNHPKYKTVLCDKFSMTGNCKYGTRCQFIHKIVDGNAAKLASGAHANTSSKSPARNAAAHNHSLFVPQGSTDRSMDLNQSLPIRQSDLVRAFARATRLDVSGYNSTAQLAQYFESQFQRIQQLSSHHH

Sequence of Cytochrome P450 2C9 (P11712 whole entry): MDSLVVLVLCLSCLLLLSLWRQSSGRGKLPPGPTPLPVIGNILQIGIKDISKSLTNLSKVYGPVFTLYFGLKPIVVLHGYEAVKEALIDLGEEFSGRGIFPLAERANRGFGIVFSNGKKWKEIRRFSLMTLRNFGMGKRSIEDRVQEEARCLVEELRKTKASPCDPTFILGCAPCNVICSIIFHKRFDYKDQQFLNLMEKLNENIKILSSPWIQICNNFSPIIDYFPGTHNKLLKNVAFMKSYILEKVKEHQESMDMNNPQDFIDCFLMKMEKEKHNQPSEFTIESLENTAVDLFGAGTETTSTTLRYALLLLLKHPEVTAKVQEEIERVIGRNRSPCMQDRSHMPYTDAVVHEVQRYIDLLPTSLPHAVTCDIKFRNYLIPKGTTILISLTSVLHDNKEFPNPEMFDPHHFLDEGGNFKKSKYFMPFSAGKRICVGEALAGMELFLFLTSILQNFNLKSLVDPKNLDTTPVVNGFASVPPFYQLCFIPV
Sequence of Cytochrome P450 3A4 (P08684 whole entry): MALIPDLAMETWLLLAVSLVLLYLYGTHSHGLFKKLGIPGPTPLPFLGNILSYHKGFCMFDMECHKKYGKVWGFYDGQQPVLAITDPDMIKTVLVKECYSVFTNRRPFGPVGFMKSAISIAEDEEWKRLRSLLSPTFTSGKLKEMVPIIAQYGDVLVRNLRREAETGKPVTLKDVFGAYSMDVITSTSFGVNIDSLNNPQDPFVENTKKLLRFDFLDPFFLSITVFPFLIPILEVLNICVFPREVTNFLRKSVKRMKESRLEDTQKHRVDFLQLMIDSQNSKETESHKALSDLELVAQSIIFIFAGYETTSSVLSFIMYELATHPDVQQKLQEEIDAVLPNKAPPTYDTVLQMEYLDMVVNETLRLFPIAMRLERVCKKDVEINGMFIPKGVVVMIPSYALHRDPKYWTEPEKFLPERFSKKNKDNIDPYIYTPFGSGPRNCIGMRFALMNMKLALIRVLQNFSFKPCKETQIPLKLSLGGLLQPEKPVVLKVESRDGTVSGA

Compound | AC50 (Cytochrome P450 3A4) | AC50 (Cytochrome P450 1A2) | AC50 (Cytochrome P450 2C9) | EC50 [1] | EC50 [2]
CC(C)(C)c1ccc(-c2nnc(SCc3ccc(Cl)cc3)n2-c2cccc(C(F)(F)F)c2)cc1 | 3.16 µM (inconclusive) | 3.16 µM (inconclusive) | 3.16 µM (inconclusive) |  | 
COC(=O)N1CCC2(CCCN(C(=O)Nc3cccc(F)c3)C2)CC1 | 25.1 µM (inconclusive) |  |  |  | 
O=C1NC(=O)N(Cc2ccccc2)C(=O)/C1=C/NNC(=O)c1ccncc1 |  |  |  | 93.9 µM (active) | 43.9 µM (active)
CCc1ccc2c(-c3cccc(Cl)c3)nc(=O)n(CC)c2n1 | 31.6 µM (inconclusive) |  | 39.8 µM (inconclusive) |  | 
C[C@@]1(C(NC(=O)c2cccs2)c2ccc(-c3ccccc3)cc2)C[C@H]1C1CCCCC1 (stereo partly drawn) | 20 µM (inconclusive) |  |  |  | 
O=C(O)c1ccccc1N(c1ccccc1)c1ccccc1 |  |  |  | > 300 µM (not active) | > 300 µM (not active)
CC(C)CNC(=O)C1Nc2ccc(OC(F)(F)F)cc2C2C=CCC12 (stereo not drawn) |  |  |  | > 300 µM (not active) | > 300 µM (not active)
CN1CCN(c2ncc3nc(-c4cn(C)c5ccccc45)c(=O)n(C)c3n2)CC1 | 25.1 µM (inconclusive) | 31.6 µM (inconclusive) | 12.6 µM (inconclusive) |  | 
Cc1cccc(/C=C(\C(=O)C(=O)O)c2ccc3ccccc3n2)c1 |  |  |  | 22.9 µM (active) | 27.2 µM (active)
C/C(CCC(=O)OC[C@@H]1O[C@H](C#Cc2ccccc2)C=C[C@@H]1Oc1ccc(C)cc1)=N/OC[C@@H](O)COCc1ccco1 |  |  | 1.58 µM (inconclusive) |  | 
Cc1cc(C)n(CCCNCC(O)c2ccccc2)n1 (stereo not drawn) | 35.5 µM (inconclusive) | 39.8 µM (inconclusive) |  |  | 
COc1cc(OC)c2c(c1Cl)O[C@@]1(C2=O)[C@H](C)CC(=O)C[C@@H]1OC | 12.6 µM (inconclusive) | 15.8 µM (inconclusive) |  |  | 
O=C(c1cccc(F)c1)N1CCC2(CCCN(Cc3ccncc3)C2)CC1 | 3.98 µM (inconclusive) | 15.8 µM (inconclusive) |  |  | 
O=C1NC(=O)C(=Cc2ccc(-c3ccc(S(=O)(=O)N4CCOCC4)cc3)o2)C(=O)N1 |  |  |  | 34.7 µM (active) | 40.5 µM (active)
O=S(=O)(c1ccccc1)N1CCCC1c1nc2ccccc2s1 (stereo not drawn) | 20 µM (inconclusive) | 25.1 µM (inconclusive) |  |  | 
O=C(c1ccco1)N1CCc2ccccc21 |  |  |  | 169 µM (active) | > 300 µM (not active)
CCOC(=O)N1CCN(CC(=O)c2ccc(O)cc2O)CC1 |  |  |  | 40.7 µM (active) | 157 µM (active)
CCC[C@@H]1C[C@@]1(CCC)C(NC(=O)c1ccccc1)c1cccc(Cl)c1 (stereo partly drawn) | 3.98 µM (inconclusive) |  | 20 µM (inconclusive) |  | 
CN(C)c1ccc(/C=N/NC2=NS(=O)(=O)c3ccccc32)cc1 |  |  |  | > 300 µM (inconclusive) | 39.3 µM (active)
O=C(NNC(=O)c1ccccc1[N+](=O)[O-])/C(O)=C/C(=O)c1ccccc1 |  |  |  | 1.11 µM (active) | 70 µM (active)
COc1ccc(C(OCCN2CCC[C@@H](C(=O)O)C2)(c2ccc(OC)cc2)c2ccc(OC)cc2)cc1 | 31.6 µM (inconclusive) | 31.6 µM (inconclusive) |  |  | 
CCOC(=O)C1=C(C)NC(=S)NC1c1cccc(O)c1 (stereo not drawn) [MONASTROL] |  | 39.8 µM (inconclusive) | 20 µM (inconclusive) |  | 
